One compound from paper doi:10.1101/141937v1 (biorxiv, 2017) can be followed below.

Molecules are shown by their SMILES.

The experiment addresses T1, EmrE (Escherichia coli, UniProt P23895).
T1 sequence (P23895 1-110): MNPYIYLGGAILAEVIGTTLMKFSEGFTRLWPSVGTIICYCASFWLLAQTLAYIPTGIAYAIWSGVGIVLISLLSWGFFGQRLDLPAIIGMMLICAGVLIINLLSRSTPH
The experiment in a line: biochemical.

One may read the Kd as the equilibrium constant for the complex coming apart. A low value points to tighter binding. The compound `c1ccc([P+](c2ccccc2)(c2ccccc2)c2ccccc2)cc1` [TPP^+] showed a dissociation constant Kd of 70 ± 9 µM.
